Measured values from US11654161B2, “Compositions and methods for neuralgenesis” (priority 2016, dated 2023).

Key:
[1] = tested on: NDUFB1, ATP5C1, ATP50; assay: Real time RT-PCR of BMPS after toxicant exposure: mitochondrial function genes; format: cell-based, human; details: for Expression of genes related to mitochondrial function (NDUFB1, ATP5C1, ATP50): 24 hours exposure, 5 μM rotenone, 1000 μM MPP+; for Mitochondrial function genes (NDUFB1, ATP5C1, ATP50), MPP+ versus rotenone: BMPS treated with MPP+ or rotenone
Procedure: (§1) Total RNA was extracted from aggregates every week up to 8 weeks of differentiation using Tripure (Roche, Switzerland) according to Chomczynski and Sacchi (1987). The same RNA extraction method was used to isolate RNA after toxicant treatment. RNA quantity and purity was determined using NanoDrop 2000c (Thermo Scientific). One microgram of RNA was reverse-transcribed using the M-MI V Promega Reverse Transcriptase (Promega) according to the manufacturer's recommendations. For miRNA reverse-transcription 60 ng of RNA were reverse transcribed using TaqMan microRNA Reverse transcription kit in combination with miRNA specific stem-loop primers, which are a part of TaqMAn microRNA expression assay. Upto eight stem-loop primers were multiplexed in one reaction.
(§2) The expression of genes was evaluated using specific Taqman® gene expression assays (Life Technologies). miRNA expression was analyzed using TaqMAn microRNA expression assay in combination with TaqMan miRNA Reverse Transcription kit using protocol described in [77]. […] Real time RT-PCRs were performed using a 7500 Fast Real Time system machine (Applied Biosystems). Fold changes were calculated using the 2(−ΔΔCt) method. β-actin and 18s were used as a housekeeping genes for mRNA and RNU44 for miRNA. There were no statistically significant differences in expression for β-actin, 18s, and RNU44. Data were presented as mean±SD, normalized to housekeeping genes and week 0.

[2] = tested on: Tyrosine hydroxylase (TH) mRNA; assay: Real time RT-PCR of BMPS after toxicant exposure: TH; format: cell-based, human; details: for TH mRNA expression decreased by: 24 hours, 5 μM rotenone, 1000 E M MPP+; for TH gene expression compared to controls: BMPS treated with rotenone or MPP+
Procedure: as §1, §2

[3] = tested on: KEAP1; assay: Real time RT-PCR of BMPS after toxicant exposure: KEAP1; format: cell-based, human; details: 24 h exposure to 1 mM MPP+
Source text: In one embodiment, the model described herein is useful for studying Parkinson's disease (PD). Traditionally, PD has been described as a pre-synaptic degenerative process that affects dopaminergic neurons and induces a fundamental motor disorder, however, non-motor symptoms can also be present. Research in Parkinson's disease is experiencing an upswing at the moment, owing to a lack of curative drugs for the large number of patients. […] These model toxins are mainly used in mice and primates (and less in cell cultures) to model a disease state resembling PD. Human neurons, which would be most relevant, are not usually available and existing cell lines are only very poor substitutes. […]
(§3) Total RNA was extracted from aggregates every week up to 8 weeks of differentiation using Tripure (Roche, Switzerland) according to Chomczynski and Sacchi (1987). […] RNA quantity and purity was determined using NanoDrop 2000c (Thermo Scientific). […]
(§4) The expression of genes was evaluated using specific Taqman® gene expression assays (Life Technologies). miRNA expression was analyzed using TaqMAn microRNA expression assay in combination with TaqMan miRNA Reverse Transcription kit using protocol described in [77]. […] Fold changes were calculated using the 2(−ΔΔCt) method. β-actin and 18s were used as a housekeeping genes for mRNA and RNU44 for miRNA. […]

[4] = tested on: Alpha-synuclein (SNCA); assay: Real time RT-PCR of BMPS after toxicant exposure: SNCA; format: cell-based, human; details: for reduction of SNCA gene expression: 24 hours exposure, sub-cytotoxic concentrations
Procedure: as §1, §2

[5] = tested on: Reactive oxygen species (ROS); assay: OxiSelect In Vitro ROS/RNS Assay in cellular medium of BMPS; format: cell-based, human; details: 5 μM rotenone, 1000 μM MPP+
Source text: This is a fluorescence-based assay measuring the presence of total free radicals within a sample and was used according to the manufacturer's protocol. The quenched fluorogenic dye dichlorodihydrofluorescin-DiOxyQ (DCFH-DiOxyQ) which is similar to the popular 2′,7′-dichlorodihydrofluorescein diacetate (DCFH-DA) is first primed with a quench removal reagent. The resulted highly reactive non-fluorescent DCFH can react with present ROS species in the cell supernatant and is then oxidized to the highly fluorescent DCF (2′,7′-dichlorodihydroxyfluorescein). At every time point, 50 μl of the cell supernatant was added to a 96-well plate in triplicates and was mixed and incubated with the DCFH-DiOxyQ for 45 minutes. The fluorescence intensity was measured with a fluorescence microplate reader at 480 nm/530 nm (excitation/emission) and was proportional to the total ROS/RNS levels within the sample.

[6] = tested on: T-box brain 1 (TBR1); assay: Real time RT-PCR of BMPS after toxicant exposure: TBR1; format: cell-based, human; details: for reduction of TBR1 gene expression: 24 hours exposure, sub-cytotoxic concentrations; for TBR1 gene expression: non-cytotoxic concentrations
Procedure: as §1, §2

[7] = tested on: BMPS; assay: Resazurin reduction cytotoxicity assay of BMPS after rotenone and MPP+ treatment; format: cell-based, human; details: 24 h exposure
Procedure: DMSO was used as vehicle control. MPP+ working solutions were prepared in differentiation medium from 30 mM stocks to reach final concentrations of 10, 50, 100, 500, 1,000, 5,000 and 10,000 μM. Four independent experiments in 3 replicates were performed for each experimental condition (control and toxicant exposure for the different time points). […] Resazurin (7-Hydroxy-3H-phenoxazin-3-one 10-oxide) is a blue dye that is reduced into red fluorescent resorufin by redox reactions in viable cells. 100 μl Resazurin (2 mg/ml stock) were added directly to the 6 well plates (2 ml/well). Plates were incubated for 3 h at 37° C., 5% CO2. Subsequently, 50 μl of medium were transferred from each well in triplicates to a 96-well plate and fluorescence was measured at 530 nm/590 nm (excitation/emission) using a multi-well fluorometric reader CytoFluor series 4000 (PerSeptive Biosystems, Inc). Data were presented as mean±SD. Statistical analysis was performed using Dunnett's test.

[8] = tested on: PD-related genes (TH, TBR1, SNCA, KEAP1, NDUFB1, ATP5C1, ATP50 and CASP1); assay: Real time RT-PCR of BMPS after toxicant exposure: PD-related gene panel; format: cell-based, human; details: 5 μM rotenone, 1 mM MPP+
Source text: Induced pluripotent stem cells (iPSC)-derived human-relevant microphysiological systems (MPS) better mimic the organ level, but are too complex for chemical and drug screening. As described herein, a reproducible 3D brain MPS (BMPS) that differentiates into mature neurons and glial cells (astrocytes and oligodendrocytes), which reproduces the topology of neuronal-glial interactions and connectivity in the central nervous system was developed. […]
as §3, §4

[9] = tested on: dopaminergic neurons; details: for Alterations in other neurofilament 200-positive neurons: cytotoxic concentrations: 10 μM rotenone; for General cytotoxicity and effect on other neuronal types at higher concentrations: up to 50 μM rotenone, up to 5000 μM MPP+
Procedure: Initially, cytotoxicity experiments were performed to estimate sub-cytotoxic concentrations of these two compounds affecting only dopaminergic neurons (FIGS. 4A and 4C). […] Reactive oxygen species (ROS) were measured in the cellular medium using the OxiSelect™ In Vitro ROS/RNS Assay Kit (Cellbiolabs, San Diego, Calif.) as an indication of oxidative stress. […] Real time RT-PCR was performed in order to determine effects of both chemicals on genes related to PD, mitochondrial dysfunction and oxidative stress.
BMPS aggregates were collected at 2, 4 and 8 weeks. BMPS were fixed in 4% paraformaldehyde for 1 hour, washed 3 times in PBS, then incubated for 1 hour in blocking solution consisting of 5% normal goat serum (NGS) in PBS with 0.4% TritonX (Sigma). BMPS were then incubated at 4° C. for 48 hours with a combination of primary antibodies (Table 2) diluted in PBS containing 3% NGS and 0.1% TritonX. BMPS were washed in PBS 3 times after which they were incubated with the appropriate fluorophore-tagged secondary antibody for 1 hour in PBS with 3% NGS at room temperature. Double immunostaining was visualized using the proper combination of secondary antibodies (e.g., goat anti-rabbit secondary antibody conjugated with Alexa 594 and goat anti-mouse secondary antibody conjugated with Alexa 488 (Molecular Probes). Nuclei were counterstained with DRAQ5 dye (Cell Signaling; 1:5000 in 1×PBS) or NucRed Live (Molecular Probes) for 15 minutes before mounted on slides with coverslips and Prolong Gold antifade reagent (Molecular Probes); BMPS used as negative controls for immunostaining were processed omitting the primary antibody. Images were taken using a Zeiss UV-LSM 510 confocal microscope. The experiments were performed in duplicates; at least three different fields of view were analyzed for each combination of antibodies. 3D reconstruction was done using Imaris 7.6.4 software for scientific imaging.

[10] = tested on: Caspase-1 (CASP1); assay: Real time RT-PCR of BMPS after toxicant exposure: Caspase-1; format: cell-based, human
Procedure: as §1
as §2, with “Data were presented as mean±SD, normalized to housekeeping genes and week 0.” left out

[11] = tested on: Down's syndrome model; assay: Down's syndrome BMPS exposed to compounds that induce oxidative stress, compared to healthy donor model; details: Down's syndrome iPSC-derived model
Source text: FIG. 5A depicts morphological characterization with immunostaining of neurons (MAP2, Syn1, TH, SYP), neural precursor cells (nestin) and glial cells (GFAP) at 8 weeks of differentiation.

C[n+]1ccc(-c2ccccc2)cc1 [MPP+, 1-methyl-4-phenylpyridinium] was tested. Which “Expression of genes related to mitochondrial function (NDUFB1, ATP5C1, ATP50)” value [1] did it give?
The value was “tended to decrease in expression but these changes were not statistically significant”.

And the “Mitochondrial function genes (NDUFB1, ATP5C1, ATP50), MPP+ versus rotenone” value [1]?
The value was “down-regulated, more strongly”.

And the “TH mRNA expression decreased by” value [2]?
Its value is 70%±9.

And the “TH gene expression compared to controls” value [2]?
The value was “decreased TH gene expression compared to controls”.

And the “KEAP1 expression (oxidative stress marker)” value [3]?
Its value is “increase in KEAP1 expression”.

And the “reduction of SNCA gene expression” value [4]?
Its value is 41±40%.

What about the “Statistical significance of change in SNCA expression” value ([4]; BMPS exposed to 1 mM MPP+) of the same compound?
Its value is “no statistically significant changes in SNCA expression”.

What about the ROS production ([5]; 12 hours exposure) of the same compound?
Its ROS production is “no statistically significant changes”.

What about the ROS production ([5]; 24 hours exposure) of the same compound?
Its ROS production is “increase in ROS production”.

And the “reduction of TBR1 gene expression” value [6]?
The value was 76±22%.

What about the TBR1 gene expression [6] of the same compound?
The TBR1 gene expression was “down-regulated”.

What about the cytotoxic concentrations [7] of the same compound?
Its cytotoxic concentrations is 1000 µM.

What about the “Expression of PD-related genes” value [8] of the same compound?
Its value is “altered expression of PD-related genes”.

What about the “Disruption of dopaminergic neurons observed by immunohistochemistry” value ([9]; 5 μM rotenone, 100 μM MPP+) of the same compound?
Its value is “disrupted dopaminergic neurons”.

And the “Dopaminergic effects at concentrations selected for further studies” value ([9]; 5 μM rotenone, 1000 μM MPP+)?
The value was “induced clear and selective dopaminergic effects”.

What about the “Selective disruption of dopaminergic neurons but not of any other cell types (immunohistochemistry)” value ([9]; 24 h, 1p M rotenone, 100 μM MPP+, BMPS differentiated 4 weeks) of the same compound?
The value was “Selective disruption of dopaminergic neurons but not of any other cell types”.

And the “Alterations in other neurofilament 200-positive neurons” value ([9]; 1000 μM MPP+)?
Its value is “did not show any alterations in other neurofilament 200-positive neurons”.

And the “Degeneration of dopaminergic neurons” value ([9]; treatment of BMPS (FIGS. 4E and 4F))?
The value was “induced specific degeneration of dopaminergic neurons”.

And the “General cytotoxicity and effect on other neuronal types at higher concentrations” value [9]?
The value was “led to general cytotoxicity and affected also other neuronal types stained positive for neurofilament 200”.

What about the “Caspase-1 (CASP1) expression” value ([10]; 24 h exposure to 1 NM MPP+) of the same compound?
The value was “increased significantly”.

What about the Caspase-1 gene expression ([10]; 24 hours exposure to MPP+) of the same compound?
Its Caspase-1 gene expression is “increased”.

For C[n+]1ccc(-c2cc[n+](C)cc2)cc1 [paraquat], which “Response of Down's syndrome model compared to model from healthy donors” value [11] is on record?
The value was “more sensitive to these compounds than the healthy model”.

How did the “Expression of genes related to mitochondrial function (NDUFB1, ATP5C1, ATP50)” value [1] turn out when C=C(C)[C@H]1Cc2c(ccc3c2O[C@@H]2COc4cc(OC)c(OC)cc4[C@@H]2C3=O)O1 [rotenone] was run?
Its value is “tended to decrease in expression but these changes were not statistically significant”.

What about the “Mitochondrial function genes (NDUFB1, ATP5C1, ATP50), MPP+ versus rotenone” value [1] of the same compound?
Its value is “down-regulated”.

And the “TH mRNA expression decreased by” value [2]?
The value was 84%±11.

And the “TH gene expression compared to controls” value [2]?
The value was “decreased TH gene expression compared to controls”.

And the SNCA gene expression ([4]; 5 μM rotenone, 1 mM MPP+)?
Its SNCA gene expression is “Reduction of SNCA”.

What about the “reduction of SNCA gene expression” value [4] of the same compound?
The value was 72±6%.

What about the ROS production ([5]; 12 hours exposure) of the same compound?
Its ROS production is “no statistically significant changes”.

And the ROS production ([5]; 24 hours exposure)?
The ROS production was “increase in ROS production”.

And the “reduction of TBR1 gene expression” value [6]?
Its value is 70±13%.

And the TBR1 gene expression [6]?
Its TBR1 gene expression is “down-regulated”.

And the cytotoxic concentrations [7]?
The cytotoxic concentrations was 10 µM.

What about the “Expression of PD-related genes” value [8] of the same compound?
The value was “altered expression of PD-related genes”.

What about the “Alterations in other neurofilament 200-positive neurons” value ([9]; 1000 μM MPP+) of the same compound?
The value was “did not show any alterations in other neurofilament 200-positive neurons”.

What about the “General cytotoxicity and effect on other neuronal types at higher concentrations” value [9] of the same compound?
The value was “led to general cytotoxicity and affected also other neuronal types stained positive for neurofilament 200”.
